Results from a melting point compilation (Tetko et al.; mined from patent text by program, amines drawn as free bases though some values may be those of a salt).

| SMILES | melting point |
| --- | --- |
| COC(=O)C1=C(C)NC(C)=C(C(=O)OCCN2CCN(C(c3ccccc3)c3ccccc3)CC2)C1c1ccccc1Cl (centres undefined) | 81 to 83 °C |
| O=C1Nc2cccnc2C12COc1cc3c(cc12)OCCO3 (centres undefined) | > 250 °C |
| C/C=C/CNc1cccc(-c2ccnc3c(C(=O)c4cccs4)cnn23)c1 | 110 to 113 °C |
| Cc1nc2c(cc1C(=O)NC(=N)N)CCCCC2Cl (centres undefined) | 153 to 156 °C |
| CC12CC(C#N)(CC1=O)C(C)(C)O2 (centres undefined) | 74 to 76 °C |
| N#Cc1ccc(-c2ccn(-c3ccc(C#N)cc3)c2)cc1 | 234 to 240 °C |
| O=C1c2ccccc2-c2c(Cl)nc3ccccc3c21 | 149 to 150 °C |
| CS(=O)(=O)c1ccc(C2=C(Br)CCC2)cc1 | 103 to 104 °C |
| NN1CCN(CCc2c[nH]c3ccccc23)CC1 | 115 to 117 °C |
| O=C(O)c1cccc(CC2COc3cc(OCc4ccc5ccccc5n4)ccc3C2O)c1 (centres undefined) | 165 to 168 °C |
| CC(=O)Nc1cccc(Br)n1 | 157 °C |
| Cn1cc(C#N)c(Nc2ccccc2[N+](=O)[O-])n1 | 172 °C |
| CCCc1c(CC)[nH]c(C(=O)OCC)c1C | 86 to 87 °C |
| COc1ccc(Oc2ncnc(-c3ccc(C(F)(F)F)cc3F)c2N)cc1 | 129 to 130 °C |
| O=C(O)C1CSC(c2ccccc2OCC2CCC(CO[N+](=O)[O-])CC2)N1 (centres undefined) | 108 to 111 °C |
| CCOP(=O)(Cc1ccccc1NC(=O)C1=Cc2cc(C3CCCCC3)ccc2CC1)OCC | 102 to 103 °C |
| CC(=O)N[C@H]1c2cc(C#N)ccc2OC(C)(C)[C@H]1O (relative stereo) | 193 to 194 °C |
| CCCC[C@H](NC(=O)C(CSC(C)=O)C(F)(F)F)C(=O)O (some centres undefined) | 123 to 125 °C |
| Cc1cnc2nc(NS(=O)(=O)c3ccccc3Cl)nn2c1 | 236 to 239 °C |
| Cn1c2ccccc2c2cc(C(=O)O)sc21 | 179 to 180 °C |
| COCN1C(C)=C(C(=O)O)C(c2ccccc2C(F)(F)F)C(C(=O)O)=C1C | 172 to 173 °C |
| CN(CC(=O)[C@H](Cc1ccccc1)NC(=O)N1CCCCC1)C(=O)N1CCC[C@H]1C(=O)O | 69 to 72 °C |
| FC(F)(F)c1ccc(-c2cc3[nH]ccn3n2)cc1 | 134 to 135 °C |
| CNC(=O)Nc1ccc(C(=O)O)cc1 | > 300 °C |
| CCOC(=O)c1cc(Br)cc(C(=O)OCC)n1 | 95 to 96 °C |
| Cn1cccc1-c1nc2cc(N)ccc2o1 | 183 to 185 °C |

| SMILES | melting point |
| --- | --- |
| O=C(Nc1ccc(I)cc1)c1ccccc1-c1ccc(C(F)(F)F)cc1 | 147 °C |
| Oc1ccc2c(c1)CCC2n1cc[nH]c1=S (centres undefined) | 208 to 209 °C |
| O=Cc1ccc(O)c(OCc2ccccc2)c1 | 123 to 124 °C |
| CNS(=O)(=O)Cc1ccc(Nc2nc(Nc3ccccc3)c3cc(OC)ccc3n2)cc1 | 212 to 215 °C |
| CCOC(=O)c1cn(-c2nc(NC(C)(C)C)c(F)cc2Cl)c2c(Cl)c(F)c(F)cc2c1=O | 210 to 213 °C |
| Cc1c(NC(=O)c2ccc(OC[C@@H]3CCCO3)cc2)ccc2c1cc(CNCC(C)(C)O)n2C | 160 to 162 °C |
| COC(=O)c1ccc(C#N)cc1Cl | 90 to 92 °C |
| CSc1nccn1-c1nc(-c2ccc(Cl)cc2)c(CCC(=O)O)o1 | 225 to 226 °C |
| Cc1cc(Cl)ccc1-c1nc(=O)c2ccccc2s1 | 134 °C |
| O=C(NCCO)c1cccc(-c2cccc3nc(Cc4cccc(C(F)(F)F)c4)oc23)c1 | 122 to 123 °C |
| COc1ccc2nc(NC(=O)C(CC3CCCC3)c3ccc(S(=O)(=O)NCc4ccco4)cc3)sc2n1 (centres undefined) | 244 to 247 °C |
| COc1ccc(Nc2nc(NCCN(C)C)nc(NC3CCCCCC3)n2)cc1F | 73 to 76 °C |
| CSC[C@H](NC(C)=O)C(=O)N(C)N | 156 to 157 °C |
| COc1cc(C(=O)O)ccc1Cc1nn(C)c2ccc(NC(=O)OC3CCCC3)cc12 | 216 to 217 °C |
| N#Cc1c2ccccc2c(-c2ccc(O[C@H](Cc3ccccc3)C(=O)O)cc2)c2c1sc1ccccc12 | 145 to 148 °C |
| CCCCCCCC(N)=NO | 73 to 75 °C |
| COc1cc2ncnc(N3CCc4ccc(N)cc43)c2cc1OC | 215 to 218 °C |
| Cc1cccc(C2SC3(CCN(C(=O)Oc4ccccc4)CC3)c3ccccc32)c1 (centres undefined) | 154 to 157 °C |
| COP(=O)(CC(=O)C(C)(C)Cc1ccccc1)OC | 39 to 46 °C |
| CCCC(=O)c1cc(-c2ccccc2)ns1 | 70 °C |
| COCC#Cc1cc(OC)c2ncc(C(=O)NCc3ccc(Cl)cc3)c(O)c2c1 | 211 to 213 °C |
| CC(C)(C)COCCOc1ccc(OCC(O)CNCCNC(=O)N2CCOCC2)cc1 (centres undefined) | 90 °C |
| COC(=O)C1Oc2ccccc2Cc2ccccc2O1 | 107 to 110 °C |
| CNc1cc(NS(=O)(=O)c2cccc(C(F)(F)F)c2)nc(NC)n1 | 234 to 235 °C |
| COc1ccccc1OCC1SCCN1C(=O)CCl (centres undefined) | 87 to 88 °C |
| CCn1c2ccccc2c2cc(C=C(c3ccccc3)c3ccccc3)ccc21 | 145 to 146 °C |

| SMILES | melting point |
| --- | --- |
| CC(=NOCCOc1ccc(CC2SC(=O)NC2=O)cc1)c1ccc(S(=O)(=O)c2ccncc2)cc1 (centres undefined) | 213 to 215 °C |
| C[C@]12C(=O)[C@]3(C)O[C@]3(C)C(=O)[C@H]1[C@H]1C=C[C@@H]2C1 (racemic) | 72 to 73 °C |
| CCCc1c(O)c(F)cc(C(C)=O)c1O | 129 to 130 °C |
| CCOC(=O)C(Cc1c([N+](=O)[O-])ccc(C)c1C)(NC(C)=O)C(=O)OCC | 112 to 113 °C |
| CCc1nc(/C=C\c2cn(-c3ccccc3)nc2OCc2ccc(OCc3nc(N4CCOCC4)sc3C)c(OC)c2)cs1 | 76 to 78 °C |
| CC1=C(CO)C(C)(C)CCC1=NO | 152 to 155 °C |
| CC(=O)CC1=C(C#N)C(c2cccc(C#N)c2Br)c2c[nH]nc2N1 (centres undefined) | 230 °C |
| CC(C)(C)OC(=O)NC(CCO)C(=O)OC(c1ccccc1)c1ccccc1 (racemic) | 125 to 129 °C |
| COc1cc(C2CCN(C[C@@H](O)CO)CC2)ccc1-c1nc2c(N[C@H]3[C@@H](C(N)=O)[C@@H]4C=C[C@H]3C4)c(Cl)cnc2[nH]1 | 209 to 211 °C |
| Nc1ccc2ccc(-c3ccccc3Cl)nc2n1 | 193 °C |
| CC(C)C(C)(NC(=O)c1nc2ccccc2cc1C(=O)O)C(N)=O (centres undefined) | 172 to 174 °C |
| Nc1nccc(-c2cccc(OCC(O)CN3CCN(c4cccc(Cl)c4)CC3)c2)n1 (centres undefined) | 140 to 141 °C |
| CNC(=O)ON=C1N=C(C)C(C)(C)S1 | 123 to 125 °C |
| COc1ccc(Cn2cnc3c(Cl)nc([N+](=O)[O-])nc32)cc1 | 181 to 182 °C |
| COc1cc(-c2oc3c(OC)cc(/C=C/C=O)cc3c2C)ccc1O | 169 to 170 °C |
| Clc1ccc2c(c1)NC(c1ccncc1)c1cc(Cl)ccc1O2 (centres undefined) | 202 to 205 °C |
| CON=C(c1ccccc1COc1cccc(Cl)c1)n1ccnc1 | 96.5 to 97.5 °C |
| CCCn1c(COCC)nc2c(N)nc3ccc(OCCNC(=O)N4CCOCC4)cc3c21 | 203 to 208 °C |
| CC(C#Cc1ccc(C=Cc2ccccn2)o1)N(O)C(N)=O (centres undefined) | 175 °C |
| COc1cc(N)ccc1-c1ccccc1 | 56 °C |
| CCCCN(CCCC)c1ccc(N=O)cc1 | 122 to 124 °C |
| CCOC(=O)N1CCN(c2c(F)cc([N+](=O)[O-])c(NC3CC3)c2C)CC1 | 97 to 98 °C |
| CCOC(=O)NN=C(c1ccc(Cl)cc1)c1ccc(OP(=S)(OCC)OCC)cc1 | 106 °C |
| COC(=O)c1nc(-c2ccccc2)n2c1CN=C(c1ccccc1Cl)c1cc(Cl)ccc1-2 | 272 to 275 °C |
| COc1cc2c(cc1OC)CN(CCc1ccc(NC(=O)c3cccc4c(=O)cc(-c5ccccc5)oc34)cc1)CC2 | 135 to 140 °C |
| CCCCCCCC1OC1CO (centres undefined) | 50 to 51 °C |

| SMILES | melting point |
| --- | --- |
| CCCCCCCCCCCCCCCCCCN(CCCCCCCCCCCCCCCCCC)C(=O)N1CCN(C)CC1 | 46 to 47 °C |
| OCC1(O)CSC(=S)N1c1ccccn1 (centres undefined) | 134 to 135 °C |
| CN1C(=O)N(CC(COc2ccc(-c3cccc(C#N)c3)cc2)N(O)C=O)C(=O)C1(C)C (centres undefined) | 130 to 132 °C |
| O=C(CN1CCOCC1)N[C@@H](Cc1ccccc1)[C@@H](O)[C@H](O)[C@H](Cc1ccccc1)NC(=O)CN1CCOCC1 | 172 to 177 °C |
| O=c1cc(N2CCOCC2)oc2ccccc12 | 143 °C |
| CCCOc1ccc(-c2ccc(=S)[nH]n2)cc1OC | 170 °C |
| O=[N+]([O-])c1ccc(/C=C/c2ccc(Cl)c(C(F)(F)F)c2)cc1 | 173 to 174 °C |
| Cn1c2ccccc2c(=O)c2c(Br)cccc21 | 219 to 221 °C |
| O=C(O)c1cc([N+](=O)[O-])ccc1C(=O)c1ccccc1 | 176 to 179 °C |
| CCOC(=O)c1nc(-c2ccc(CN(C)C)cc2)[nH]c1-c1ccc(Cl)cc1 | 117 to 118 °C |
| CN(C[C@H]1CC[C@H](C#CCO)CC1)C(=O)OC(C)(C)C | 97 to 99 °C |
| CCCCCOc1ccc(CCOc2ccc(/C=C(\OCC)C(=O)O)cc2OCCCC)cc1Cl | 95 °C |
| CCOC(=O)C(=NOC)C1=CSc2ccccc2O1 | 78 to 80 °C |
| CC(C(=O)O)c1cccc2c(-c3ccccc3)onc12 (centres undefined) | 140 to 144 °C |
| CCCC1CCN(CCCCC(=O)c2cc(Cl)c(N)cc2OCc2cc(OC)cc(OC)c2)CC1 | 119 to 120 °C |
| Nc1cc(=O)n(Cc2cc(Cl)ccc2F)[nH]1 | 160 °C |
| CNC(=O)c1cc2c(Oc3ccc(-n4cncn4)cc3)cncc2s1 | 214 to 215 °C |
| Clc1ccc(C=Cc2nc3c(s2)NCCCC3)cc1 | 188 to 189 °C |
| CCc1cccc2nc3c(=O)[nH][nH]c(=O)c3c(O)c12 | > 400 °C |
| CN1C(=O)NC2(CCCCC2)C1=O | 214 to 215 °C |
| Cc1ccc2nc(-c3ccccc3)nc(Cl)c2c1 | 111 to 113 °C |
| CCOC(=O)c1cnc2c(cnn2CC)c1O | 85 to 87 °C |
| CN1CCC(P(=O)(O)O)(P(=O)(O)O)N=C1N | 308 °C |
| COC(=O)c1cc(OCCCCCCCCCCCCOc2ccccc2)ccc1OCc1ccccc1 | 46 to 48 °C |
| c1ccc(CCN2CCN(c3n[nH]c4c3CCc3sccc3-4)CC2)cc1 | 145 to 147 °C |
| O=C(Nc1ccc(Cl)c(C(F)(F)F)c1)Oc1ccc2c(c1)CCCN2Cc1ccccc1 | 151 °C |
